Test results: ChEMBL document CHEMBL1201862, “PubChem BioAssay data set” (2004)
Activity calls are given as the source filed them.

The compounds below were run against Cytochrome P450 2D6 (Homo sapiens, UniProt P10635).
Chain of Cytochrome P450 2D6 (P10635 whole entry): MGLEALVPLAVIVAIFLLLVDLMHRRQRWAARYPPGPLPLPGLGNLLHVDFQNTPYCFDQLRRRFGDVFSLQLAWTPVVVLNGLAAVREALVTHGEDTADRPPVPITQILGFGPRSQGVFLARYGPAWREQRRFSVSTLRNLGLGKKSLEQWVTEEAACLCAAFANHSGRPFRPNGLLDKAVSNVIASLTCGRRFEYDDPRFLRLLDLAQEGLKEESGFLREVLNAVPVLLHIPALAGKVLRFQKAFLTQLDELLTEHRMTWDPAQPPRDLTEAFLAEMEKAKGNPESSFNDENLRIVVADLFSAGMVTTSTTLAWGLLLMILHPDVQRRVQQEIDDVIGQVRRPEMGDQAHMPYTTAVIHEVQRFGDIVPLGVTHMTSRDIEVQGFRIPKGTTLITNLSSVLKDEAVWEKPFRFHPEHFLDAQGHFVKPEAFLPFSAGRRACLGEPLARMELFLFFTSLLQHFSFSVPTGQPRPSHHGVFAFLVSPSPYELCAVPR

With O=C(c1csnn1)N1CCC[C@@]2(CCN(c3ccccn3)C2)C1 as the compound, how does the AC50 read?
Its AC50 is 12.6 µM (inconclusive).

How did the AC50 turn out when O=C(N/N=C/c1c[nH]c2ccccc12)c1ccn(Cc2ccc(Cl)cc2Cl)n1 was run?
The AC50 was 7.08 µM (inconclusive).

Each compound was assayed on Streptococcus sp. 'group A' (assay: Streptococcus pyogenes SK(-)GAS viability under kanamycin – luminescence, BacTiterGlo, confirmation, counter-screen for streptokinase expression inhibitor project, dose response (AID 1900)).
Format: functional, organism-based

COc1ccc2nc(Nc3nc4cc5c(cc4s3)OCO5)sc2c1 was tested. Which EC50 did it give?
The EC50 was 1.17 µM (active).

How did the EC50 turn out when CCCOc1ccc(/C=C/c2c([N+](=O)[O-])c(=O)n(C)c(=O)n2C)cc1 was run?
The EC50 was 26.9 µM (active).

Which EC50 does the source give for COc1ccc(OC)c(-n2c(C)cc(/C=C3\C(=N)N4N=C(CC(=O)N5CCOCC5)SC4=NC3=O)c2C)c1 here?
The EC50 was 36.3 µM (active).

With COc1ccc(CN(C)S(=O)(=O)c2nnc(NC(=O)c3ccccc3Br)s2)cc1 as the compound, how does the EC50 read?
Its EC50 is 6.23 µM (active).

Which EC50 does the source give for O=C(NC(=S)N1CCN(c2nc(-c3ccccc3)cs2)CC1)c1cccnc1 here?
The EC50 was 5.55 µM (active).

How did the EC50 turn out when FC(F)(F)c1cc(Nc2ccccc2)nc(-c2ccccn2)n1 was run?
Its EC50 is 9.52 µM (active).

How did the EC50 turn out when COc1ccc(C2CC(=O)c3cnc(N4CCN(Cc5ccccc5)CC4)nc3C2)cc1 (stereo not drawn) was run?
The EC50 was 14.9 µM (active).

For Cc1cc(C)n(C(=O)/C(C#N)=N/Nc2cc(Cl)cc(Cl)c2)n1, which EC50 is on record?
Its EC50 is 2.34 µM (active).

Which EC50 does the source give for Cc1ccc(C23CC4CC(CC(C(=O)N5CCN(C)CC5)(C4)C2)C3)cc1 here?
Its EC50 is > 150 µM (not active).

Which EC50 does the source give for CC(C)=CCc1c(-c2ccc(O)cc2O)oc2c3c(cc(O)c2c1=O)OC(C)(C)C=C3 [MORUSIN] here?
Its EC50 is 2.71 µM (active).

Each compound was assayed against T1, Streptokinase A (Streptococcus pyogenes serotype M1, UniProt P10520) (assay: viability-normalized secreted streptokinase activity reduction – plasminogen activation absorbance, OD405, dose response (AID 1914);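 also: secreted streptokinase activity via plasminogen activation per viability signal from cell pellet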).
T1 sequence (P10520 whole entry): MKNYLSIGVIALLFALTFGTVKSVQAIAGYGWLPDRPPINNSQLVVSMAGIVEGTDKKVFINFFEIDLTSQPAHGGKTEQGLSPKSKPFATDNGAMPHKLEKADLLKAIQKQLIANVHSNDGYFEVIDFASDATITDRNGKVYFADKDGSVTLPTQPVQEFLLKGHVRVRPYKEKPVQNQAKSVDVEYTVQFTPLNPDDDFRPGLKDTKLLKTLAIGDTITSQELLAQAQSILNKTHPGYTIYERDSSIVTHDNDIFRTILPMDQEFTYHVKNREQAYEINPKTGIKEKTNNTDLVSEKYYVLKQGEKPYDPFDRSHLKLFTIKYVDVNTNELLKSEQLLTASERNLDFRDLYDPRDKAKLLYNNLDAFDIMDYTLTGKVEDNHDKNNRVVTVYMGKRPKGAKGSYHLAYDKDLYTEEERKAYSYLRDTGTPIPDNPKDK
Format: functional, Streptococcus pyogenes M1 GAS

COc1ccc2nc(Nc3nc4cc5c(cc4s3)OCO5)sc2c1 was tested. Which EC50 did it give?
Its EC50 is > 150 µM (not active).

For CCCOc1ccc(/C=C/c2c([N+](=O)[O-])c(=O)n(C)c(=O)n2C)cc1, which EC50 is on record?
The EC50 was > 150 µM (not active).

Which EC50 does the source give for COc1ccc(OC)c(-n2c(C)cc(/C=C3\C(=N)N4N=C(CC(=O)N5CCOCC5)SC4=NC3=O)c2C)c1 here?
Its EC50 is > 150 µM (not active).

COc1ccc(CN(C)S(=O)(=O)c2nnc(NC(=O)c3ccccc3Br)s2)cc1 was tested. Which EC50 did it give?
Its EC50 is 9.36 µM (active).

Which EC50 does the source give for O=C(NC(=S)N1CCN(c2nc(-c3ccccc3)cs2)CC1)c1cccnc1 here?
Its EC50 is > 150 µM (not active).

For FC(F)(F)c1cc(Nc2ccccc2)nc(-c2ccccn2)n1, which EC50 is on record?
The EC50 was > 150 µM (not active).

For COc1ccc(C2CC(=O)c3cnc(N4CCN(Cc5ccccc5)CC4)nc3C2)cc1 (stereo not drawn), which EC50 is on record?
The EC50 was > 150 µM (not active).

Cc1cc(C)n(C(=O)/C(C#N)=N/Nc2cc(Cl)cc(Cl)c2)n1 was tested. Which EC50 did it give?
The EC50 was > 150 µM (not active).

For Cc1ccc(C23CC4CC(CC(C(=O)N5CCN(C)CC5)(C4)C2)C3)cc1, which EC50 is on record?
Its EC50 is > 150 µM (not active).

How did the EC50 turn out when CC(C)=CCc1c(-c2ccc(O)cc2O)oc2c3c(cc(O)c2c1=O)OC(C)(C)C=C3 [MORUSIN] was run?
Its EC50 is 1.15 µM (active).

These compounds were tested against T2, Cytochrome P450 1A2 (Homo sapiens, UniProt P05177).
T2 sequence (P05177 whole entry): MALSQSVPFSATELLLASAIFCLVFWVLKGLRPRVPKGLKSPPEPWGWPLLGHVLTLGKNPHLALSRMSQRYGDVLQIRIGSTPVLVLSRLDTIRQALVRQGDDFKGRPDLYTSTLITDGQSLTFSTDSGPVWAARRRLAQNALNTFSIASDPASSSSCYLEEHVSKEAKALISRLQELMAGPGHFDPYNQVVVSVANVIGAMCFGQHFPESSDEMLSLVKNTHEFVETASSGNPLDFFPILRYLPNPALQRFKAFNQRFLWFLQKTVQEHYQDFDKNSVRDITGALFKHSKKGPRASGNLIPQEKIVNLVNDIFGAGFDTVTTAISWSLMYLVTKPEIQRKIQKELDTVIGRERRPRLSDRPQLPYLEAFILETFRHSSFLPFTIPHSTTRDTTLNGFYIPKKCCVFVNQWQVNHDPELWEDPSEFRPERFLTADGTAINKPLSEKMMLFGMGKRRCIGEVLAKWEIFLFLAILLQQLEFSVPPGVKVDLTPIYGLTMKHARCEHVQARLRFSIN

For O=C(Nc1ccccc1)N1CC[C@@]2(CCCN(C(=O)Oc3ccccc3)C2)C1, which AC50 is on record?
The AC50 was 15.8 µM (inconclusive).

For CCCC[C@@H]1C[C@H]1C(NC(=O)c1ccccc1)c1ccccc1C(F)(F)F (stereo partly drawn), which AC50 is on record?
The AC50 was 10 µM (inconclusive).

How did the AC50 turn out when CN1CCN(c2ncc3nc(-c4cc(F)cc(F)c4)c(=O)n(Cc4cccs4)c3n2)CC1 was run?
Its AC50 is 6.31 µM (inconclusive).

Cc1c(C)c2c(c(C)c1O)CC[C@@](C)(C(=O)O)O2 was tested. Which AC50 did it give?
Its AC50 is 20 µM (inconclusive).

Which AC50 does the source give for COC(=O)c1sc2ccccc2c1-n1cccc1C(=O)C(=O)Nc1ccc(Cl)cc1 here?
Its AC50 is 2.82 µM (inconclusive).

What follows are compounds tested on Streptococcus (assay: GAS UMAA2166 growth inhibition – luminescence, BacTiterGlo, counter-screen for streptokinase expression inhibitor project, dose response (AID 1915);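 also: potency for reduction of bacterial viability or growth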).
Format: functional, organism-based

Which EC50 does the source give for COc1ccc2nc(Nc3nc4cc5c(cc4s3)OCO5)sc2c1 here?
The EC50 was > 150 µM (not active).

How did the EC50 turn out when CCCOc1ccc(/C=C/c2c([N+](=O)[O-])c(=O)n(C)c(=O)n2C)cc1 was run?
Its EC50 is > 150 µM (not active).

How did the EC50 turn out when COc1ccc(OC)c(-n2c(C)cc(/C=C3\C(=N)N4N=C(CC(=O)N5CCOCC5)SC4=NC3=O)c2C)c1 was run?
Its EC50 is 87.9 µM (active).

COc1ccc(CN(C)S(=O)(=O)c2nnc(NC(=O)c3ccccc3Br)s2)cc1 was tested. Which EC50 did it give?
The EC50 was 98.9 µM (active).

For O=C(NC(=S)N1CCN(c2nc(-c3ccccc3)cs2)CC1)c1cccnc1, which EC50 is on record?
Its EC50 is > 150 µM (not active).

With FC(F)(F)c1cc(Nc2ccccc2)nc(-c2ccccn2)n1 as the compound, how does the EC50 read?
The EC50 was 88.6 µM (active).

How did the EC50 turn out when COc1ccc(C2CC(=O)c3cnc(N4CCN(Cc5ccccc5)CC4)nc3C2)cc1 (stereo not drawn) was run?
Its EC50 is 21.6 µM (active).

How did the EC50 turn out when Cc1cc(C)n(C(=O)/C(C#N)=N/Nc2cc(Cl)cc(Cl)c2)n1 was run?
The EC50 was 12.3 µM (active).

For Cc1ccc(C23CC4CC(CC(C(=O)N5CCN(C)CC5)(C4)C2)C3)cc1, which EC50 is on record?
Its EC50 is > 150 µM (not active).

With CC(C)=CCc1c(-c2ccc(O)cc2O)oc2c3c(cc(O)c2c1=O)OC(C)(C)C=C3 [MORUSIN] as the compound, how does the EC50 read?
The EC50 was 2.96 µM (active).

These compounds were tested against Cytochrome P450 3A4 (Homo sapiens, UniProt P08684).
Chain of Cytochrome P450 3A4 (P08684 whole entry): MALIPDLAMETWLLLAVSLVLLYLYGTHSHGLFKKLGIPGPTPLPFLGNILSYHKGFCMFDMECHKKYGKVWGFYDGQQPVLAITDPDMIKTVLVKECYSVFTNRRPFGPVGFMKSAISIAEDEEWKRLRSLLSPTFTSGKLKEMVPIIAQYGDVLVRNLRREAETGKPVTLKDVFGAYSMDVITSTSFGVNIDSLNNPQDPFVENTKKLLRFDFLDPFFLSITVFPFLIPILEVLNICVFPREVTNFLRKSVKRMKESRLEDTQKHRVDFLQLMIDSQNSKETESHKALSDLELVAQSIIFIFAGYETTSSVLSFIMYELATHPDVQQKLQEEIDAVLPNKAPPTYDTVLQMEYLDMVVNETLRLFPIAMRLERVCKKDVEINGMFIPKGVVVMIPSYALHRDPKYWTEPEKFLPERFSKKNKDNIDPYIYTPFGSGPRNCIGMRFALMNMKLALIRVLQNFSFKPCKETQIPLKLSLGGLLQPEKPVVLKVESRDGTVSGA

Which AC50 does the source give for O=C(Nc1c(C(=O)N2CCCCC2)cnn1-c1ccccc1)c1ccco1 here?
Its AC50 is 17.8 µM (inconclusive).

O=C(Nc1ccccc1)N1CC[C@@]2(CCCN(C(=O)Oc3ccccc3)C2)C1 was tested. Which AC50 did it give?
The AC50 was 25.1 µM (inconclusive).

With CCCC[C@@H]1C[C@H]1C(NC(=O)c1ccccc1)c1ccccc1C(F)(F)F (stereo partly drawn) as the compound, how does the AC50 read?
Its AC50 is 3.16 µM (inconclusive).

How did the AC50 turn out when CN1CCN(c2ncc3nc(-c4cc(F)cc(F)c4)c(=O)n(Cc4cccs4)c3n2)CC1 was run?
Its AC50 is 25.1 µM (inconclusive).

Which AC50 does the source give for Cc1c(C)c2c(c(C)c1O)CC[C@@](C)(C(=O)O)O2 here?
The AC50 was 12.6 µM (inconclusive).

With COc1ccc(N2C(=O)NC(NC(=O)c3ccncc3)(C(F)(F)F)C2=O)cc1 (stereo not drawn) as the compound, how does the AC50 read?
The AC50 was 22.4 µM (inconclusive).

How did the AC50 turn out when CN(C)S(=O)(=O)c1cccc(NC(=O)COC(=O)c2ccc(Br)o2)c1 was run?
Its AC50 is 20 µM (inconclusive).

For O=C(c1csnn1)N1CCC[C@@]2(CCN(c3ccccn3)C2)C1, which AC50 is on record?
The AC50 was 6.31 µM (inconclusive).

With O=C(N/N=C/c1c[nH]c2ccccc12)c1ccn(Cc2ccc(Cl)cc2Cl)n1 as the compound, how does the AC50 read?
The AC50 was 3.55 µM (inconclusive).

For COC(=O)c1sc2ccccc2c1-n1cccc1C(=O)C(=O)Nc1ccc(Cl)cc1, which AC50 is on record?
The AC50 was 14.1 µM (inconclusive).

CN1CCN(c2ncc3ncc(=O)n(Cc4cccs4)c3n2)CC1 was tested. Which AC50 did it give?
The AC50 was 25.1 µM (inconclusive).
